Data reported in patent US20260242419A1, “A CYCLIC PEPTIDE FOR TRAPPING INTERLEUKIN-1 BETA” (Merck Sharp & Dohme LLC, priority 2023, published 2026).
Starred links: 1 amine or outer side, 2 acyl side, 3 side chain; linkers in the order of their positions; H or OH if unused. Non-standard residues stand in square brackets, D forms with d. Residues, ends and D or L forms follow the SMILES beside them. Groups on a side chain read outwards from the residue. Phe(4-(5-CO2H-2-pyrimidyl)) = N[C@@H](Cc1ccc(-c2ncc(C(=O)O)cn2)cc1)C(=O)O; dPro(4R-(4-pyridylmethyl)) = O=C(O)[C@H]1C[C@@H](Cc2ccncc2)CN1; Ala(piperidin-4-yl) = O=C([C@H](CC1CCN([*:3])CC1)N[*:1])[*:2]; Trp(βS-Me,4-F) = C[C@@H](c1c[nH]c2cccc(F)c12)[C@H](N)C(=O)O; Bip(4'-COOH) = N[C@@H](Cc1ccc(-c2ccc(C(=O)O)cc2)cc1)C(=O)O; Ala(1-bicyclo(1.1.1)pentyl) = N[C@@H](CC12CC(C1)C2)C(=O)O; X26 = O=C(O)c1ccc(-c2ncc(C[C@H](N[*:1])C(=O)[*:2])cn2)cc1; dPro(4R-Bzl(4-F)) = O=C(O)[C@H]1C[C@@H](Cc2ccc(F)cc2)CN1; dPro(3S-(4-F-Bn)) = O=C(O)[C@@H]1NCC[C@@H]1Cc1ccc(F)cc1; X20 = O=C([C@H]1C[C@@H](Cc2ccc(Cl)cc2)CN1[*:1])[*:2]; X40 = O=C([C@H](Cc1ccc(-c2cncnc2)cc1)N[*:1])[*:2]; Ala(pyrimidin-5-yl) = N[C@@H](Cc1cncnc1)C(=O)O; Phe(4-CONH2) = NC(=O)c1ccc(C[C@H](N)C(=O)O)cc1; Phe(4-COOH) = N[C@@H](Cc1ccc(C(=O)O)cc1)C(=O)O; Trp(4-F) = N[C@@H](Cc1c[nH]c2cccc(F)c12)C(=O)O; Phe(3-Cl) = N[C@@H](Cc1cccc(Cl)c1)C(=O)O; Pro(cis-4-F) = O=C(O)[C@@H]1C[C@H](F)CN1; Ala(4-THP) = N[C@@H](CC1CCOCC1)C(=O)O; X6 = O=C([C@H](Cc1ccncn1)N[*:1])[*:2]; AEF = NCCOc1ccc(C[C@H](N)C(=O)O)cc1; cisHyp = O=C(O)[C@@H]1C[C@H](O)CN1; d(αMeD) = C[C@@](N)(CC(=O)O)C(=O)O; 4Pal = N[C@@H](Cc1ccncc1)C(=O)O; αMeD = C[C@](N)(CC(=O)O)C(=O)O; Dab = NCC[C@H](N)C(=O)O; Aib = CC(C)(N)C(=O)O; Inp = O=C(O)C1CCNCC1

Target: T1, IL-1β (Homo sapiens, UniProt P01584)
T1 construct: purchased BioLegend 579404
Test: IL-6 assay in MRC5 cells: inhibition of IL-1β induced IL-6 secretion (AlphaLISA)
Assay type: cell-based
Details: inhibition of IL-1β induced IL-6 secretion in MRC5 cells; compound pre-incubated 1 hour with recombinant human IL-1β; read-out: MRC5 IC50
Method in brief: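 Compound was pre-incubated 1 h at ambient temperature with recombinant human IL-1β at 2λ EC80 before adding human lung fibroblast MRC5 cells (3000/well) in EMEM with 0.025% BSA. After overnight culture at 37 °C, 5% CO2, secreted IL-6 in conditioned medium was measured by AlphaLISA; IC50 from 4-parameter logistic fits.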

T1 sequence (P01584 117-269): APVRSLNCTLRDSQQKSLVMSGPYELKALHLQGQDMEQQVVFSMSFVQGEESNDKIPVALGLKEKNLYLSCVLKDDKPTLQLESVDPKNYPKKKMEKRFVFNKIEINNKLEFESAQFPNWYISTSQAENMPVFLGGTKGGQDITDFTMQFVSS

IC50	Structure (SMILES)
13 pM	C[C@@H](c1c[nH]c2cccc(F)c12)[C@@H]1NC(=O)[C@@H]2C[C@H](F)CN2C(=O)CNC(=O)[C@H](Cc2ccc(C(=O)O)cc2)NC(=O)[C@H](Cc2ccncc2)NC(=O)[C@H](Cc2ccc(-c3ccc(C(=O)O)cc3)cc2)NC(=O)[C@H]2C[C@@H](Cc3ccncc3)CN2C(=O)CNC(=O)[C@H](CCN)NC(=O)[C@H](CCC(N)=O)NC(=O)[C@H](Cc2cncnc2)NC(=O)[C@@](C)(CC(=O)O)NC(=O)[C@H](Cc2c[nH]c3cccc(F)c23)NC(=O)[C@H](CO)NC(=O)C(C)(C)NC1=O [Example 252] (cyclo([Bip(4'-COOH)][4Pal][Phe(4-COOH)]G[Pro(cis-4-F)][Trp(βS-Me,4-F)][Aib]S[Trp(4-F)][d(αMeD)][Ala(pyrimidin-5-yl)]Q[Dab]G[dPro(4R-(4-pyridylmethyl))]))
17 pM	CC(=O)N1CCC(C(=O)NCCOc2ccc(C[C@@H]3NC(=O)[C@H]4C[C@@H](Cc5ccncc5)CN4C(=O)CNC(=O)[C@H](CCN)NC(=O)[C@H](CCC(N)=O)NC(=O)[C@H](Cc4cncnc4)NC(=O)C(C)(C)NC(=O)[C@H](Cc4c[nH]c5ccccc45)NC(=O)[C@H](CO)NC(=O)C(C)(C)NC(=O)[C@H]([C@@H](C)c4c[nH]c5cccc(F)c45)NC(=O)[C@@H]4C[C@H](F)CN4C(=O)CNC(=O)[C@H](Cc4ccc(C(=O)O)cc4)NC(=O)[C@H](Cc4ccncc4)NC3=O)cc2)CC1 [Example 302] (cyclo([AEF]([Inp-Ac])[4Pal][Phe(4-COOH)]G[Pro(cis-4-F)][Trp(βS-Me,4-F)][Aib]SW[Aib][Ala(pyrimidin-5-yl)]Q[Dab]G[dPro(4R-(4-pyridylmethyl))]))
14 pM	C[C@@H](c1c[nH]c2cccc(F)c12)[C@@H]1NC(=O)[C@@H]2C[C@H](F)CN2C(=O)CNC(=O)[C@H](Cc2ccc(C(=O)O)cc2)NC(=O)[C@H](Cc2ccncc2)NC(=O)[C@H](Cc2ccc(-c3cncnc3)cc2)NC(=O)[C@H]2[C@@H](Cc3ccc(F)cc3)CCN2C(=O)CNC(=O)[C@H](CCN)NC(=O)[C@H](CCC(N)=O)NC(=O)[C@H](Cc2cncnc2)NC(=O)[C@@](C)(CC(=O)O)NC(=O)[C@H](Cc2c[nH]c3ccccc23)NC(=O)[C@H](CO)NC(=O)C(C)(C)NC1=O [Example 282] (cyclo([X40][4Pal][Phe(4-COOH)]G[Pro(cis-4-F)][Trp(βS-Me,4-F)][Aib]SW[d(αMeD)][Ala(pyrimidin-5-yl)]Q[Dab]G[dPro(3S-(4-F-Bn))]))

Same assay, conditions: inhibition of IL-1β induced IL-6 secretion in MRC5 cells; read-out: MRC5 IC50

IC50	Structure (SMILES)
27 pM	C[C@@H](c1c[nH]c2cccc(F)c12)[C@@H]1NC(=O)[C@@H]2C[C@H](F)CN2C(=O)CNC(=O)[C@H](Cc2ccc(C(=O)O)cc2)NC(=O)[C@H](CC23CC(C2)C3)NC(=O)[C@H](Cc2ccc(-c3ccc(C(=O)O)cc3)cc2)NC(=O)[C@H]2C[C@@H](Cc3ccncc3)CN2C(=O)CNC(=O)[C@H](CCN)NC(=O)[C@H](CCC(N)=O)NC(=O)[C@H](Cc2ccncc2)NC(=O)C(C)(C)NC(=O)[C@H](Cc2c[nH]c3ccccc23)NC(=O)[C@H](CCC(=O)O)NC(=O)C(C)(C)NC1=O [Example 45] (cyclo([Bip(4'-COOH)][Ala(1-bicyclo(1.1.1)pentyl)][Phe(4-COOH)]G[Pro(cis-4-F)][Trp(βS-Me,4-F)][Aib]EW[Aib][4Pal]Q[Dab]G[dPro(4R-(4-pyridylmethyl))]))
15 pM	C[C@@H](c1c[nH]c2cccc(F)c12)[C@@H]1NC(=O)[C@@H]2C[C@H](F)CN2C(=O)CNC(=O)[C@H](Cc2ccc(C(=O)O)cc2)NC(=O)[C@H](Cc2ccncc2)NC(=O)[C@H](Cc2ccc(-c3ncc(C(=O)O)cn3)cc2)NC(=O)[C@H]2C[C@@H](Cc3ccncc3)CN2C(=O)CNC(=O)[C@H](CCN)NC(=O)[C@H](CCC(N)=O)NC(=O)[C@H](Cc2cncnc2)NC(=O)[C@](C)(CC(=O)O)NC(=O)[C@H](Cc2c[nH]c3ccccc23)NC(=O)[C@H](CO)NC(=O)C(C)(C)NC1=O [Example 187] (cyclo([Phe(4-(5-CO2H-2-pyrimidyl))][4Pal][Phe(4-COOH)]G[Pro(cis-4-F)][Trp(βS-Me,4-F)][Aib]SW[αMeD][Ala(pyrimidin-5-yl)]Q[Dab]G[dPro(4R-(4-pyridylmethyl))]))
48 pM	CC(=O)NCCOc1ccc(C[C@@H]2NC(=O)[C@H]3C[C@@H](Cc4ccncc4)CN3C(=O)CNC(=O)[C@H](CCN)NC(=O)[C@H](CCC(N)=O)NC(=O)[C@H](CC3CCOCC3)NC(=O)[C@@](C)(CC(=O)O)NC(=O)[C@H](Cc3c[nH]c4ccccc34)NC(=O)[C@H](CO)NC(=O)C(C)(C)NC(=O)[C@H]([C@@H](C)c3c[nH]c4cccc(F)c34)NC(=O)[C@@H]3C[C@H](F)CN3C(=O)CNC(=O)[C@H](Cc3ccc(C(N)=O)cc3)NC(=O)[C@H](CC34CC(C3)C4)NC2=O)cc1 [Example 376] (cyclo([AEF](Ac)[Ala(1-bicyclo(1.1.1)pentyl)][Phe(4-CONH2)]G[Pro(cis-4-F)][Trp(βS-Me,4-F)][Aib]SW[d(αMeD)][Ala(4-THP)]Q[Dab]G[dPro(4R-(4-pyridylmethyl))]))
19 pM	C[C@@H](c1c[nH]c2cccc(F)c12)[C@@H]1NC(=O)[C@@H]2C[C@H](F)CN2C(=O)CNC(=O)[C@H](Cc2ccc(C(=O)O)cc2)NC(=O)[C@H](CC23CC(C2)C3)NC(=O)[C@H](Cc2ccc(-c3ccc(C(=O)O)cc3)cc2)NC(=O)[C@H]2C[C@@H](Cc3ccc(F)cc3)CN2C(=O)CNC(=O)[C@H](CCN)NC(=O)[C@H](CCC(N)=O)NC(=O)[C@H](CC2CCNCC2)NC(=O)C(C)(C)NC(=O)[C@H](Cc2c[nH]c3ccccc23)NC(=O)[C@H](CO)NC(=O)C(C)(C)NC1=O [Example 169] (cyclo([Bip(4'-COOH)][Ala(1-bicyclo(1.1.1)pentyl)][Phe(4-COOH)]G[Pro(cis-4-F)][Trp(βS-Me,4-F)][Aib]SW[Aib][Ala(piperidin-4-yl)]Q[Dab]G[dPro(4R-Bzl(4-F))]))
54 pM	C[C@@H](c1c[nH]c2cccc(F)c12)[C@@H]1NC(=O)[C@@H]2C[C@H](F)CN2C(=O)CNC(=O)[C@H](Cc2ccc(C(=O)O)cc2)NC(=O)[C@H](Cc2ccncc2)NC(=O)[C@H](Cc2cnc(-c3ccc(C(=O)O)cc3)nc2)NC(=O)[C@H]2C[C@@H](Cc3ccc(F)cc3)CN2C(=O)CNC(=O)[C@H](CCN)NC(=O)[C@H](CCC(N)=O)NC(=O)[C@H](Cc2cncnc2)NC(=O)C(C)(C)NC(=O)[C@H](Cc2c[nH]c3ccccc23)NC(=O)[C@H](CCC(=O)O)NC(=O)C(C)(C)NC1=O [Example 91] (cyclo([X26][4Pal][Phe(4-COOH)]G[Pro(cis-4-F)][Trp(βS-Me,4-F)][Aib]EW[Aib][Ala(pyrimidin-5-yl)]Q[Dab]G[dPro(4R-Bzl(4-F))]))
12 pM	C[C@@H](c1c[nH]c2cccc(F)c12)[C@@H]1NC(=O)[C@@H]2C[C@H](F)CN2C(=O)CNC(=O)[C@H](Cc2ccc(C(=O)O)cc2)NC(=O)[C@H](Cc2ccncc2)NC(=O)[C@H](Cc2ccc(-c3ccc(C(=O)O)cc3)cc2)NC(=O)[C@H]2C[C@@H](Cc3ccc(F)cc3)CN2C(=O)CNC(=O)[C@H](CCN)NC(=O)[C@H](CCC(N)=O)NC(=O)[C@H](Cc2ccncn2)NC(=O)C(C)(C)NC(=O)[C@H](Cc2c[nH]c3ccccc23)NC(=O)[C@H](CCC(=O)O)NC(=O)C(C)(C)NC1=O [Example 345] (cyclo([Bip(4'-COOH)][4Pal][Phe(4-COOH)]G[Pro(cis-4-F)][Trp(βS-Me,4-F)][Aib]EW[Aib][X6]Q[Dab]G[dPro(4R-Bzl(4-F))]))
36 pM	C[C@@H](c1c[nH]c2cccc(F)c12)[C@@H]1NC(=O)[C@@H]2C[C@H](O)CN2C(=O)CNC(=O)[C@H](Cc2ccc(C(=O)O)cc2)NC(=O)[C@H](Cc2ccncc2)NC(=O)[C@H](Cc2ccc(-c3ncc(C(=O)O)cn3)cc2)NC(=O)[C@H]2C[C@@H](Cc3ccncc3)CN2C(=O)CNC(=O)[C@H](CCN)NC(=O)[C@H](CCC(N)=O)NC(=O)[C@H](Cc2cncnc2)NC(=O)C(C)(C)NC(=O)[C@H](Cc2c[nH]c3ccccc23)NC(=O)[C@H](CO)NC(=O)C(C)(C)NC1=O [Example 197] (cyclo([Phe(4-(5-CO2H-2-pyrimidyl))][4Pal][Phe(4-COOH)]G[cisHyp][Trp(βS-Me,4-F)][Aib]SW[Aib][Ala(pyrimidin-5-yl)]Q[Dab]G[dPro(4R-(4-pyridylmethyl))]))
9 pM	C[C@@H](c1c[nH]c2cccc(F)c12)[C@@H]1NC(=O)[C@@H]2C[C@H](F)CN2C(=O)CNC(=O)[C@H](Cc2ccc(C(=O)O)cc2)NC(=O)[C@H](Cc2ccncc2)NC(=O)[C@H](Cc2ccc(-c3ccc(C(=O)O)cc3)cc2)NC(=O)[C@H]2C[C@@H](Cc3ccc(Cl)cc3)CN2C(=O)CNC(=O)[C@H](CCN)NC(=O)[C@H](CCC(N)=O)NC(=O)[C@H](Cc2cncnc2)NC(=O)[C@@](C)(CC(=O)O)NC(=O)[C@H](Cc2c[nH]c3ccccc23)NC(=O)[C@H](CO)NC(=O)C(C)(C)NC1=O [Example 329] (cyclo([Bip(4'-COOH)][4Pal][Phe(4-COOH)]G[Pro(cis-4-F)][Trp(βS-Me,4-F)][Aib]SW[d(αMeD)][Ala(pyrimidin-5-yl)]Q[Dab]G[X20]))
18 pM	CC(=O)NCCOc1ccc(C[C@@H]2NC(=O)[C@H]3C[C@@H](Cc4ccncc4)CN3C(=O)CNC(=O)[C@H](CCN)NC(=O)[C@H](CCC(N)=O)NC(=O)[C@H](Cc3cccc(Cl)c3)NC(=O)C(C)(C)NC(=O)[C@H](Cc3c[nH]c4ccccc34)NC(=O)[C@H](CCC(=O)O)NC(=O)C(C)(C)NC(=O)[C@H]([C@@H](C)c3c[nH]c4cccc(F)c34)NC(=O)[C@@H]3C[C@H](F)CN3C(=O)CNC(=O)[C@H](Cc3ccc(C(=O)O)cc3)NC(=O)[C@H](Cc3ccncc3)NC2=O)cc1 [Example 309] (cyclo([AEF](Ac)[4Pal][Phe(4-COOH)]G[Pro(cis-4-F)][Trp(βS-Me,4-F)][Aib]EW[Aib][Phe(3-Cl)]Q[Dab]G[dPro(4R-(4-pyridylmethyl))]))
